The text below walks through data of paper PMC8301544, “A randomized, double‐blind, placebo‐ and positive‐controlled crossover study of the effects of durlobactam on cardiac repolarization in healthy subjects” (Clinical and Translational Science, 2021).

Like-named read-outs stand apart in the source and are kept apart here.

Data set [1] deals with class A, C, and D β-lactamases. As to conditions: cited from earlier work.
For data set [2] the following is noted: single dose, normal renal function; cited from earlier work.
For data set [3] the following is noted: patients with complicated urinary tract infection, durlobactam/sulbactam 1 g every 6 h for 7 days; cited from earlier work.
Data set [4] is described as follows: Plasma pharmacokinetics after single dose in healthy subjects (LC-MS/MS, noncompartmental analysis). Type of data set: in vivo, human. On the procedure:
Moxifloxacin was administered open‐label.
Plasma concentrations less than the lower limit of quantification were reported as 0. Plasma concentrations of durlobactam were determined by validated liquid chromatography with tandem mass spectrometry (LC‐MS/MS) assays operated in the negative ion mode (method number M8351072B) performed at Covance (Salt Lake City, UT). For durlobactam, the quantitation range was 5–5000 ng/ml. Moxifloxacin plasma concentrations were determined by LC‐MS/MS operated in the positive ion mode (method number 180M001.01) performed at Pharmaron ABS (Germantown, PA). The quantitation range was 1–1000 ng/ml.
PK parameters were determined with noncompartmental analysis using Phoenix WinNonlin (version 7.0 or higher), and PK parameters were compared with SAS version 9.3 or higher.

Data set [5] deals with healthy subjects. Briefly: Safety and tolerability (adverse events). Type of data set: in vivo, human. The note with it: for serious AEs, discontinuation for AEs, deaths: all treatment groups; for incidence of at least one AE: single dose durlobactam 4 g i.v. or moxifloxacin 400 mg oral. The method, then: Safety was assessed from vital signs (systolic/diastolic blood pressure, HR, respiratory rate, and body temperature), physical examination, clinical laboratory tests (serum chemistry, hematology, and urinalysis), 12‐lead safety ECGs, and adverse events (AEs).

Data set [6] is described as follows: Single dose study in subjects with varying degrees of renal impairment. It counts as in vivo, human. As to conditions: severe renal impairment category (CLcr = 0-15 ml/min).
For data set [7], the system named is healthy subjects. The experiment in a line: Cardiodynamic evaluation, 12-lead 24-h Holter ECG (QTcF, HR, categorical outliers). The note with it: for mean placebo-corrected ΔHR (ΔΔHR) / placebo-corrected change from baseline QTcF (ΔΔQTcF): durlobactam 4 g i.v.; for placebo-corrected change from baseline QTcF (ΔΔQTcF): mean ± spread (90% CI); for subjects with QTcF greater than 450 ms and less than or equal to 480 ms: single dose durlobactam 4 g i.v. or moxifloxacin 400 mg oral.
Method: This was a partially double‐blind study in healthy adult subjects, which was conducted as a placebo‐ and active‐controlled, single‐infusion, three‐way crossover study. […] Study treatments were administered in the fasted state on day 1 of each treatment period. A 7 (±2) day washout period occurred between successive treatments. Subjects, investigator, and sponsor were blinded to durlobactam and placebo treatment assignment. Moxifloxacin was administered open‐label.
Variables associated with the primary ECG end point, placebo‐corrected change‐from‐baseline QTcF (ΔΔQTcF), were computed from means of measurements made on multiple replicate ECGs extracted at scheduled timepoints from Holter 12‐lead ECG data. Holter 12‐lead ECGs were read centrally (ERT, Rochester, NY). ECG end points included change‐from‐baseline HR, QTcF, PR, and QRS (ΔHR, ΔQTcF, ΔPR, and ΔQRS); placebo‐corrected change‐from‐baseline HR, PR, and QRS (ΔΔHR, ΔΔPR, and ΔΔQRS); categorical outliers for QTcF, HR, PR, and QRS; and frequency of treatment‐emergent changes of T‐wave morphology and U‐wave presence.
During each treatment period, 12‐lead, 24‐h Holter ECGs were continuously recorded and evaluated by a central ECG laboratory.

On the set-up of data set [8]: method as in PMID 32284380. The note with it: multiple dose regimen for 11 days, 1 g i.v. dose; cited from earlier work.
Data set [9] concerns healthy subjects.
Method: The relationship between durlobactam plasma concentration and change‐from‐baseline QTcF (ΔQTcF) was investigated by a linear mixed‐effects modeling approach with a treatment effect‐specific intercept. […] The geometric mean of the individual Cmax values for subjects on the active dose were determined.

As usually defined, the Cmax is the highest concentration seen after dosing. The AUC(0-inf) is total exposure, with the tail of the curve extrapolated. As usually defined, the clearance is the rate of elimination divided by the concentration. A word on the half-life: it is the time in which the quantity being followed falls by half. For the molecule `CC1=C[C@@H]2CN(C(=O)N2OS(=O)(=O)O)[C@@H]1C(N)=O` [durlobactam], the β-lactamase inhibition result in data set [1] was “inhibits class A, C, and D β‐lactamases”. For the same molecule, the highest concentration (Cmax) in data set [2] was 27,000 ng/ml; in data set [3], 39,900 ng/ml; in [4] (human, plasma, iv, 4 g, durlobactam 4 g single 3-h i.v. infusion, healthy subjects, n = 31, mean, read-out: Cmax), 108 µg/mL; in [4] (human, plasma, iv, 4 g, durlobactam 4 g single 3-h i.v. infusion, read-out: observed geometric mean Cmax), 106 µg/mL; in [8], 28.1 µg/mL. In [4] (durlobactam 4 g single 3-h i.v. infusion, n = 31, mean), the “Vz (volume of distribution)” value turned out to be 33.6 ± 5.2 L. Also, the Tmax in data set [4] (durlobactam 4 g single 3-h i.v. infusion, n = 31, mean, after start of infusion) was 3.1 ± 0.32 h; in data set [4] (human, plasma, iv, 4 g, durlobactam 4 g single 3-h i.v. infusion, n = 31, mean, after start of infusion, read-out: Tmax), ~3 h. Besides, the Vd in data set [4] (human, plasma, iv, 4 g, durlobactam 4 g single 3-h i.v. infusion, n = 31, mean, read-out: Vz (volume of distribution)) turned out to be 33.6 L. The AUC(0-inf) in data set [4] (human, plasma, iv, durlobactam 4 g single 3-h i.v. infusion, n = 31, mean) is 413 µg·h/mL. Also, the AUC(0-t) in [4] (human, plasma, iv, durlobactam 4 g single 3-h i.v. infusion, n = 31, mean, read-out: AUC0-24) worked out at 413 µg·h/mL. Besides, the clearance in data set [4] (human, plasma, iv, durlobactam 4 g single 3-h i.v. infusion, n = 31, mean, read-out: CL (total body clearance) (converted)) is ~165 mL/min. Moreover, the half-life in data set [4] (human, plasma, iv, durlobactam 4 g single 3-h i.v. infusion, read-out: mean apparent half-life (converted)) is 2.3 h. The “fold increase of mean Cmax (4 g dose) above maximum Cmax predicted with a 1 g dose” value in data set [4] (patients with normal renal function) is recorded as ~3.2 fold; in data set [4] (patients with severe renal impairment), ~1.5 fold. For the same molecule, the “serious AEs, discontinuation for AEs, deaths” value in data set [5] is “No serious AEs, discontinuation for AEs, or deaths occurred”. In addition, in data set [5] (durlobactam 4 g i.v., 2 subjects), the “incidence of fatigue (AE)” value turned out to be 6.5%. For the same molecule, the “incidence of at least one AE” value in data set [5] came out at 19.4%. Moreover, in data set [6], the “estimated Cmax from linear regression of dose normalized Cmax versus creatinine clearance” value is 60,000 ng/ml. For the same molecule, the “mean placebo-corrected ΔHR (ΔΔHR)” value is −2.6 bpm in data set [7] (3 h post-start-of-infusion) and −0.2 bpm in [7] (4 h post-start-of-infusion). Further, the “placebo-corrected change from baseline QTcF (ΔΔQTcF)” value in data set [7] (6 h) came out at 1.8 ms; in [7] (8 h), 1.8 ms; in [7] (24 h), 0.0 ms. Besides, in [7] (durlobactam 4 g supratherapeutic dose), the “effect on HR” value is “no clinically relevant effect on HR”. For the same molecule, the “subjects with QTcF greater than 450 ms and less than or equal to 480 ms” value in data set [7] is listed as 3.2%. Besides, the “plasma concentration up to which an effect on ΔΔQTcF exceeding 10 ms was excluded” value in [9] (durlobactam) is listed as ~190,000 ng/ml. For the same molecule, in [9] (durlobactam 4 g i.v. over 3 h), the “effect on ECG parameters including QT interval prolongation (C-QT analysis)” value was “no significant effect”. In addition, in [9] (durlobactam, planned dose of 1 g), the “fold of excluded concentration (190,000 ng/ml) over therapeutic plasma concentrations” value was “over 3 fold”. Further, in [9] (durlobactam, not statistically significant), the treatment effect-specific intercept was determined as 0.6 ms. For the same molecule, the “estimated slope of the plasma concentration-QTc relationship” value in data set [9] (durlobactam, not statistically significant, 90% CI -0.0000232 to 0.0000194) is on record as −0.0000019 ms per ng/ml.
With `COc1c(N2C[C@@H]3CCCN[C@@H]3C2)c(F)cc2c(=O)c(C(=O)O)cn(C3CC3)c12` [moxifloxacin, reference compound], the Cmax in data set [4] (human, plasma, po, 400 mg, moxifloxacin single 400 mg oral dose, read-out: mean Cmax) came out at 2.18 µg/mL. Moreover, the Tmax in data set [4] (human, plasma, po, 400 mg, moxifloxacin single 400 mg oral dose, read-out: time to peak plasma concentration) was ~1.9 h. Further, in data set [4] (human, plasma, moxifloxacin single 400 mg oral dose, read-out: mean AUC0-last), the AUC(0-t) turned out to be 22.6 µg·h/mL. Moreover, the “geometric mean peak concentration” value in data set [4] (moxifloxacin single 400 mg oral dose) came to 2103.4 ng/mL. In data set [5], the “serious AEs, discontinuation for AEs, deaths” value was “No serious AEs, discontinuation for AEs, or deaths occurred” and the “incidence of at least one AE” value was found to be 22.6%. Also, the “subjects with QTcF greater than 450 ms and less than or equal to 480 ms” value in data set [7] was 6.5%. Further, the “subjects with ΔQTcF greater than 30 ms and less than or equal to 60 ms” value in [7] (single dose moxifloxacin 400 mg oral) was 6.5%. For the same molecule, in data set [9] (human, in vivo), the “slope of the concentration-QTc relationship” value amounted to 0.0065 ms per ng/ml and the treatment effect-specific intercept amounted to 0.4 ms.
